Experimental findings from US10350210B2, “EGFR and ALK dual inhibitor” (PRECEDO PHARMACEUTICALS CO., LTD, priority 2015, dated 2019) are described below.

One assay relates to NCI-H1975. Briefly: Growth of cancer cells (Cell Titer-Glo viability), NCI-H1975. The format is cell-based. Conditions: Homo sapiens; NCI-H1975 (EGFR L858R/T790M double mutant), 72 hrs. In outline: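 Cells are counted as viable by CellTiter-Glo chemiluminescence. Murine BaF3 lines depend on a stably transfected TEL-fused kinase after IL-3 withdrawal, and the NSCLC lines express mutant EGFR.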
Background: Cellular ATP, detected with luciferase, serves as a proxy for viable cell number.

Another assay has as its system A431. Briefly: Growth of cancer cells (Cell Titer-Glo viability), A431. The format is cell-based. Conditions: Homo sapiens, A-431; A431 (wild-type EGFR), 72 hrs; read-out: GI50.
Another assay concerns A549. Briefly: Growth of cancer cells (Cell Titer-Glo viability), A549. As to conditions: Homo sapiens; A549 (wild-type EGFR), 72 hrs. The format is cell-based.
Another assay concerns ALK protein (H3122). Briefly: Effect on signaling pathway in cells, H3122. The assay is classed as cell-based, human. As to conditions: H3122 (expressing ALK gene), 4 h. Here is the method:
In non-small cell lung cancer cell line H3122 (expressing ALK gene), the effect of Compound 1 on other protein kinases that are closely related to ALK such as Stat3, Ras, MEK1/2, ErK, mTOR, PI3K, JAK3, AKT in this cell was assessed by assaying a number of cellular biochemical and functional endpoints. […] The effect of Compound 1 on phosphorylation of Stat3 Y705, Ras, MEK1/2S217/221, Erk T202/204, mTOR, PI3K, JAK3Tyr980/981, AKT T308, AKT 5473 in this cell line was assayed (FIG. 1e).
In non-small cell lung cancer cell line H3122 (expressing ALK gene), the effect of Compound 10 on ALK and other protein kinases that are closely related to ALK such as Stat3, Ras, MEK1/2, ErK, mTOR, PI3K, JAK3, AKT in this cell was assessed by assaying a number of cellular biochemical and functional endpoints. The lung cancer cell H3122 (expressing ALK gene) was treated with different concentrations of 0 μM, 0.03 μM, 0.1 μM, 0.3 μM, 1 μM, 3 μM of Compound 10 (in DMSO), 1 μM of AZD9291 (in DMSO) (purchased from Shanghai Haoyuan Chemexpress Co., Ltd.), 1 μM of LDK378 (in DMSO) (purchased from Shanghai Haoyuan Chemexpress Co., Ltd.), and blank control (DMSO) for 4 h, and the samples were collected. The effect of Compound 10 on phosphorylation of ALK Y1604, Stat3 Y705, Ras, MEK1/25217/221, Erk T202/204, mTOR, PI3K, JAK3 Tyr980/981, AKT T308, AKT S473 in this cell line was assayed (FIG. 1f).

For another assay, the system named is NCI-H2122. Briefly: Growth of cancer cells (Cell Titer-Glo viability), NCI-H2122. As to conditions: Homo sapiens; NCI-H2122 (wild-type EGFR), 72 hrs. The assay is classed as cell-based.

`C=CC(=O)Nc1cc(Nc2ncc(Cl)c(Nc3ccccc3S(=O)(=O)C(C)C)n2)c(OC)cc1N1CCN(CC)CC1` [Compound 1, N-(5-(5-chloro-4-(2-(isopropylsulfonyl)phenylamino)pyrimidin-2-ylamino)-2-(4-ethylpiperazin-1-yl)-4-methoxyphenyl)acrylamide]: the GI50 (as a rule, the concentration at which growth is held to half of that of the control) in the assay with NCI-H1975 is 67 nM; with A431 it was 62 nM; in the assay with A549 it was 410 nM; with NCI-H2122 it was 9 nM. Moreover, the “concentration able to significantly inhibit the phosphorylation of ALK protein” value in the assay with ALK protein (H3122) came out at 0.1 µM. Moreover, the “concentration that almost completely inhibited the phosphorylation of ALK protein” value with ALK protein (H3122) stood at 0.3 µM. The “effects on other protein kinases closely related to ALK protein (Stat3, Ras, MEK1/2, ErK, JAK3, AKT)” value in the assay on ALK protein (H3122) was “evident effects”.
As to `C=CC(=O)Nc1cc(Nc2ncc(Cl)c(Nc3ccccc3S(=O)(=O)C(C)C)n2)c(OC)cc1N1CCCN(C)CC1` [Compound 10, N-(5-(5-chloro-4-(2-(isopropylsulfonyl)phenylamino)pyrimidin-2-ylamino)-4-methoxy-2-(4-methyl-1,4-homopiperazin-1-yl)phenyl)acrylamide], the 50% growth inhibitory concentration (GI50) was found to be 15 nM in the assay with NCI-H1975, 170 nM in the assay on A431, 510 nM in the assay with A549 and 190 nM in the assay on NCI-H2122. The “concentration able to significantly inhibit the phosphorylation of ALK protein” value in the assay on ALK protein (H3122) was found to be 0.03 µM. In addition, the “concentration that almost completely inhibited the phosphorylation of ALK protein” value in the assay on ALK protein (H3122) worked out at 0.1 µM. Moreover, the “effects on other protein kinases closely related to ALK protein (Stat3, Ras, MEK1/2, ErK, JAK3, AKT)” value in the assay on ALK protein (H3122) was “evident effects”.
